The source of these data is patent publication US10584103B2 (Sanford Burnham Prebys Medical Discovery Institute, priority 2014, dated 2020).

The target of assay [1] is NTR1 (Homo sapiens (Human), UniProt P30989). The assay can be described thus: NTR1 dose response, high-content imaging assay in NTR1-U2OS cells (beta-arrestin-GFP). It counts as cell-based. The text has this: The cell lines utilized in the high-content imaging assays, which include the NTR1-, NTR2-, and GPR35-U2OS osteosarcomas, were obtained from the laboratory of Dr. Lawrence Barak at the Duke University Medical Center. The media used in the culture of the cell lines, as well as the assays themselves, consisted of Minimum Essential Medium (15-010-CM) and L-glutamine (25-005-CL) from Cellgro/Mediatech (Manassas, Va.), fetal bovine serum (SH30396.03) from Hyclone (Logan, Utah), penicillin-streptomycin solution (PS-20) from Omega Scientific in Tarzana, Calif., G418 (ant-gn-1) from Invivogen (San Diego, Calif.), and zeocin (R250-01) from Invitrogen (Carlsbad, Calif.). Cell lines were cultured in T225 tissue culture flasks (431082) supplied by Corning (Corning, N.Y.). Additional reagents employed include Dulbecco's Phosphate-Buffered Saline (DPBS) (21-031CV) from Cellgro/Mediatech, Trypsin-EDTA 0.05% (25300) from Invitrogen, paraformaldehyde (30528954) from Acros Organics (Geel, Belgium), Hoechst 33342 (H3570) from Invitrogen. The high-content assays were run in 1536-well plates (29326) supplied by Aurora Biotechnology (Poway, Calif.) and utilized aluminum plate seals (T592100) from E&K Scientific (Santa Clara, Calif.). […]

Assay [2] deals with neurotensin-deficient mice. As to conditions: cited from earlier work.

Sequence of NTR1 (P30989 whole entry, species assumed): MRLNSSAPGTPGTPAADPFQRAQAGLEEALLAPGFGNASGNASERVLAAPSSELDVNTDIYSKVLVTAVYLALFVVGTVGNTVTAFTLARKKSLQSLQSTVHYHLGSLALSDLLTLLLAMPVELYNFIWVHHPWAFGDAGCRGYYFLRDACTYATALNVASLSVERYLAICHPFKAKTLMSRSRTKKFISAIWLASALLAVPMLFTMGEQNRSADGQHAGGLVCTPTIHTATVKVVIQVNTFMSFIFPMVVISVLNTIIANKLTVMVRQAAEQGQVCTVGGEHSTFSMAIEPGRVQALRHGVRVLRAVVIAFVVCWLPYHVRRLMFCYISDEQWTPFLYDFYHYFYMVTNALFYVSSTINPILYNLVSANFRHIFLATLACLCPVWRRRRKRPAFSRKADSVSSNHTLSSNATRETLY

Take `C#Cc1nc(N2CCC(c3ccccc3OC)CC2)c2cc(N(C)CCO)ccc2n1` [Example 192, 2-({2-Ethynyl-4-[4-(2-methoxy-phenyl)-piperidin-1-yl]-quinazolin-6-yl}-methyl-amino)-ethanol]: the EC50 result in assay [1] is on record as “et”.
In the case of `CN1CCN(C2=Nc3cc(Cl)ccc3Nc3ccccc32)CC1` [clozapine], the “augmentation of PPI” value in assay [2] is “augmented PPI normally”.
In the case of `OCCOCCN1CCN(C2=Nc3ccccc3Sc3ccccc32)CC1` [quetiapine], in assay [2], the “augmentation of PPI” value was “ineffective”.
For the molecule `O=C(CCCN1CCC(O)(c2ccc(Cl)cc2)CC1)c1ccc(F)cc1` [haloperidol], in assay [2], the “augmentation of PPI” value is “ineffective”.
